The structures appear in SMILES notation. Like-named read-outs stand apart in the source and are kept apart here.

Experiment [1] has as its target T1, Recombinant human JAK2 kinase domain protein (Residues 812-1132) (Homo sapiens, UniProt O60674).
T1 construct: human JAK2 kinase domain protein (Residues 812-1132); made in house; host or cells: insect cells
Description: JAK2 biochemical assay (microfluidic mobility shift, peptide phosphorylation). The note with it: 25 μM ATP, 0.2 nM total JAK2; Ki calculated from Ki app (tight-binding, competitive); read-out: Biochem JAK2 Ki. As for the experimental part:
(§1) The in vitro biochemical assays quantify JAK-catalyzed phosphorylation of a synthetic peptide, as detected using a LabChip® EZ Reader II microfluidic mobility shift instrument (PerkinElmer; Waltham, MA). The substrate peptide Y-1B has the sequence 5-FAM-VALVDGYFRLTT-NH2. Y-1B is fluorescently labeled on the N-terminus with 5-FAM (5-carboxyfluorescein) and contains a single tyrosine residue (Y) that can be phosphorylated by JAK activity. The substrate peptide stock is prepared in DMSO at 5 mM. Purified recombinant human JAK1 kinase domain protein (Residues 854-1154) was expressed in insect cells and procured from Proteros Biostructures GmbH (Martinsried, Germany). Recombinant human JAK2 kinase domain protein (Residues 812-1132) was expressed in insect cells and purified at Genentech, Inc. (South San Francisco, CA).
(§2) The kinase reaction mixtures contained 100 mM 4-(2-hydroxyethyl)-1-piperazineethanesulfonic acid (HEPES) buffer (pH 7.2), 10 mM magnesium chloride, 0.015% Brij® 35, 4 mM dithiothreitol, 1.5 μM Y-1B peptide substrate, 25 μM adenosine triphosphate (ATP), 1 nM total JAK1 or 0.2 nM total JAK2, and up to 1000 nM test compound in a final concentration of 2% (volume to volume [v/v]) DMSO. In each titration experiment, test compound was tested in duplicate at each of the twelve concentrations. Blank reactions contained ATP, peptide, and DMSO, but no JAK or test compound, whereas uninhibited control reactions contained ATP, peptide, JAK, and DMSO, but no test compound.
(§3) Peptide plus ATP mixture (24 μL) was added to 1 μL of test compound in DMSO (or DMSO alone). The reactions were initiated by adding 25 μL of JAK enzyme to the inhibitor/peptide/ATP mixture before thoroughly mixing the resultant solution. Reactions were incubated at room temperature (22° C.-23° C.) in a final volume of 50 μL per well in 384-well plates. After a 30-minute incubation, the reactions were stopped by adding 25 μL of 150 mM ethylenediaminetetraacetic acid in 100 mM HEPES buffer (pH 7.2) containing 0.015% Brij 35 to each well.
(§4) In each reaction, the residual Y-1B substrate and the phospho-peptide product generated were separated using the EZ Reader 1 instrument. Electrophoretic separation of molecules of product from molecules of substrate was achieved using downstream and upstream voltages of −500 and −2600 V, respectively, at an operating pressure of −1.3 psi. The 5-FAM group present on both the substrate and product peptides was excited at 488 nm, the fluorescence was detected at 530 nm, and the peak heights were reported.
(§5) The extent (or percent) of conversion of substrate to product was calculated from the corresponding peak heights in the electropherogram using HTS Well Analyzer software, Version 5.2 (PerkinElmer), and the following equation (Equation 1): % conversion=[P[…](S+P)]×100 Equation 1 where S and P represent the peak heights of the substrate and product, respectively. After any baseline signal from blank wells containing no JAK was subtracted from the signal of all test wells, the % conversion data were converted to fractional activity as shown in Equation 2, where νi and νo are the % conversion in the presence and absence of test compound, respectively. The % conversion observed in the uninhibited control reactions containing JAK and DMSO vehicle, but no test compound, was defined to have fractional activity=1 (with no inhibitor present, νi=νo), whereas blank wells with no JAK were defined as having fractional activity=0. Fractional activity was plotted against test compound concentration and the data were fitted using XLfit software (IDBS; Guildford, United Kingdom) to a tight-binding apparent inhibition constant (Ki^app) quadratic equation (see Equation 2) (Williams J W, Morrison J F. The kinetics of reversible tight-binding inhibition. Methods Enymol 1979; 63:437-67), which was used to calculate fractional activity and Ki^app […]

In experiment [2] the test system is JAK1 (IL-13-stimulated STAT6 phosphorylation in BEAS-2B cells). Description: P-STAT6 BEAS-2B+IL-13 cell assay. Type of experiment: cell-based, human. The note with it: 1 hour compound, IL-13 15 minutes, IC50 by four-parameter fit, read-out: Cellular JAK1 PSTAT6 BEAS2B + IL13. Here is the method:
In order to study the effect of JAK1 inhibitors in a cell line that is relevant to the cell biology of human asthma, an IL-13-stimulated STAT6 phosphorylation assay in the human lung bronchial epithelial BEAS-2B cell line was developed.
BEAS-2B cells (ATCC® CRL-9609™) were grown in Bronchial Epithelial Growth Medium (BEGM) (Lonza Catalog No. CC-3170; Walkersville, MD; or PromoCell Catalog No. C-21060; Heidelberg, Germany). Test compound stock solutions (0.5 mM in DMSO) were serially diluted 1:2 in DMSO to generate a 10-point concentration curve (at 500× test concentration), which was further diluted by a 50-fold dilution step in BEGM to generate a 10× concentration curve (in 2% DMSO). Cells were plated at 100,000 cells/well in 200 μL of BEGM in 96-well plates and incubated for 48 hours at 37° C. in a humidified incubator. Medium was aspirated from the cells and replaced with 70 μL of fresh BEGM. Diluted test compound (10 μL; or 2% DMSO in assay medium) was added to the cells, and the plates were incubated for 1 hour at 37° C. in a humidified incubator. Twenty μL of 250 ng/mL human recombinant IL-13 (Bio Techne Catalog No. 213-ILB) was then added to the cells and incubated for 15 minutes at 37° C. Medium was aspirated from the cells and 60 μL of ice-cold 1×cell lysis buffer (Cell Signaling Technologies; Catalog No. 9803S) containing 1 mM PMSF was added to the cells. Assay plates were incubated at −80° C. for at least 1 hour. P-STAT6 was measured by coating GAR plates (MSD; Catalog No. L45RA-1) with rabbit anti-human total STAT6 antibody (Cell Signaling Technologies; Catalog No. 9362S), incubating the cell lysates in the coated plates overnight at 4° C., and then detecting with mouse anti-phospho-STAT6 (Tyr641) Clone 16E12 antibody (Millipore; Catalog No. 05-590, custom labeled by MSD with SULFO-tag) using standard MSD plate processing, washing, and detection protocols. Plates were read on the MESO SECTOR S600.
Data analysis was performed by subtracting negative control values from all wells and determining percent of control using the positive control values; the IC50 was determined with a four-parameter logistic fit model as shown in Equation 4.

Experiment [3] addresses T2, recombinant human JAK1 kinase domain protein (Residues 854-1154) (Homo sapiens, UniProt P23458).
T2 construct: human JAK1 kinase domain protein (Residues 854-1154); purchased Proteros Biostructures GmbH (Martinsried, Germany); host or cells: insect cells
Description: JAK1 biochemical assay (microfluidic mobility shift, peptide phosphorylation). The note with it: 25 μM ATP, 1 nM total JAK1; Ki calculated from Ki app (tight-binding, competitive); read-out: Biochem JAK1 Ki. As for the experimental part:
as §1, §2, §3, §4, §5

T1 sequence (O60674 812-1132): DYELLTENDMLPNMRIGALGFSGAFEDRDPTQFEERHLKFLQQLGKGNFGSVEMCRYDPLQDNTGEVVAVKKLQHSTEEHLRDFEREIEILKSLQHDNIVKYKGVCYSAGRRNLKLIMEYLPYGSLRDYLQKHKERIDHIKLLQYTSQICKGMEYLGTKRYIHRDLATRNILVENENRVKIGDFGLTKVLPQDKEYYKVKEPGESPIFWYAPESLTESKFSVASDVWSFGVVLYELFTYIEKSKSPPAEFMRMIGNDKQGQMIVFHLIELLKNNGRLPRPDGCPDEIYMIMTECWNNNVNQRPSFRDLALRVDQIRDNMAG
T2 sequence (P23458 854-1154): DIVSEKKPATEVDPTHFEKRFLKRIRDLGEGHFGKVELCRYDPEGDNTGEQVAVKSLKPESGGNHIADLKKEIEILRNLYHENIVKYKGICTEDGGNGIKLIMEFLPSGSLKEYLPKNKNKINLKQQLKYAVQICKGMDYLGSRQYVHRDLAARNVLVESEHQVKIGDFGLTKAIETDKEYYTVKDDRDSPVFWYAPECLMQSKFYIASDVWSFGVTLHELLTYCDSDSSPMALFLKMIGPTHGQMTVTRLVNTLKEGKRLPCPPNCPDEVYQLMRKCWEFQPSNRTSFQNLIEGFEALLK

With `CN(C)C1CCC(N2CC(n3nnc(Cn4cc(NC(=O)c5cnn6cccnc56)c(-c5cc(OC(F)F)ccc5OC(F)F)n4)n3)C2)C1` (single isomer, unassigned) [Example 76, N-[3-[2,5-bis(difluoromethoxy)phenyl]-1-[[2-[1-[3-(dimethylamino)cyclopentyl]azetidin-3-yl]tetrazol-5-yl]methyl]pyrazol-4-yl]pyrazolo[1,5-a]pyrimidine-3-carboxamide], the Ki is 1.9 nM in experiment [1] and 2.4 nM in experiment [3]. Besides, the IC50 in experiment [2] is 74 nM.
`CN(C)CCN(C)C1CC(n2nnc(Cn3cc(NC(=O)c4cnn5cccnc45)c(-c4cc(OC(F)F)ccc4OC(F)F)n3)n2)C1` (single isomer, unassigned) [Example 81, N-[3-[2,5-bis(difluoromethoxy)phenyl]-1-[[2-[3-[2-(dimethylamino)ethyl-methyl-amino]cyclobutyl]tetrazol-5-yl]methyl]pyrazol-4-yl]pyrazolo[1,5-a]pyrimidine-3-carboxamide; formic acid]: the Ki is 0.47 nM in experiment [1] and 0.52 nM in experiment [3]. Moreover, the IC50 in experiment [2] (Homo sapiens, BEAS-2B, 1 h) is 29 nM.
`CN(C)CCN(C)C1CC(n2nnc(Cn3cc(NC(=O)c4cnn5cccnc45)c(-c4cc(OC(F)F)ccc4OC(F)F)n3)n2)C1` (single isomer, unassigned) [Example 82, N-[3-[2,5-bis(difluoromethoxy)phenyl]-1-[[2-[3-[2-(dimethylamino)ethyl-methyl-amino]cyclobutyl]tetrazol-5-yl]methyl]pyrazol-4-yl]pyrazolo[1,5-a]pyrimidine-3-carboxamide; formic acid]: the figures for the Ki in experiment [1] and in experiment [3] were 0.47 nM and 0.54 nM, respectively. The IC50 in experiment [2] (formic acid) was 32 nM.
In the case of `CN(C)CC(F)CN1CC(n2nnc(Cn3cc(NC(=O)c4cnn5cccnc45)c(-c4cc(OC(F)F)ccc4OC(F)F)n3)n2)C1` (single isomer, unassigned) [Example 83, N-[3-[2,5-bis(difluoromethoxy)phenyl]-1-[[2-[1-[3-(dimethylamino)-2-fluoro-propyl]azetidin-3-yl]tetrazol-5-yl]methyl]pyrazol-4-yl]pyrazolo[1,5-a]pyrimidine-3-carboxamide], the Ki is 0.39 nM in experiment [1] and 0.43 nM in experiment [3]. Further, the IC50 in experiment [2] (Homo sapiens, BEAS-2B, 1 h) is 17 nM.
Consider `CN(C)CC(F)CN1CC(n2nnc(Cn3cc(NC(=O)c4cnn5cccnc45)c(-c4cc(OC(F)F)ccc4OC(F)F)n3)n2)C1` (single isomer, unassigned) [Example 84, N-[3-[2,5-bis(difluoromethoxy)phenyl]-1-[[2-[1-[3-(dimethylamino)-2-fluoro-propyl]azetidin-3-yl]tetrazol-5-yl]methyl]pyrazol-4-yl]pyrazolo[1,5-a]pyrimidine-3-carboxamide], for which the Ki is 0.5 nM in experiment [1] and 0.55 nM in experiment [3]. In experiment [2], the IC50 worked out at 20 nM.
Take `CN1CCC[C@@H]1Cn1nnc(Cn2cc(NC(=O)c3cnn4cccnc34)c(-c3cc(OC(F)F)ccc3OC(F)F)n2)n1` (stereo in doubt) [Example 49, N-[3-[2,5-bis(difluoromethoxy)phenyl]-1-[[2-[[rac-(2R)-1-methylpyrrolidin-2-yl]methyl]tetrazol-5-yl]methyl]pyrazol-4-yl]pyrazolo[1,5-a]pyrimidine-3-carboxamide]: the values for the Ki in experiment [1] and in experiment [3] were 0.41 nM and 0.53 nM, respectively. Also, the IC50 in experiment [2] (Homo sapiens, BEAS-2B, 1 h) was 19 nM.
Taken in the same sequence, the figures for `CN1CCC[C@H]1Cn1nnc(Cn2cc(NC(=O)c3cnn4cccnc34)c(-c3cc(OC(F)F)ccc3OC(F)F)n2)n1` (stereo in doubt) [Example 53, N-[3-[2,5-bis(difluoromethoxy)phenyl]-1-[[2-[[rac-(2S)-1-methylpyrrolidin-2-yl]methyl]tetrazol-5-yl]methyl]pyrazol-4-yl]pyrazolo[1,5-a]pyrimidine-3-carboxamide] were 0.32 nM, 0.48 nM and 35 nM.

(Values after US12247032B2, “Substituted pyrazolo[1,5-a]pyrimidines as inhibitors of JAK kinases” (Genentech, Inc., priority 2019, dated 2025).)
